Measurements published in patent US10238738B2, “Methods of modulating immune system responses” (priority 2014, dated 2019).

What was measured:
NF-κB = NF-κB luciferase reporter assay in 293T cells; assay type: cell-based, human
Procedure: 293T were maintained in DMEM supplemented with 10% FBS, 1% glutamax, and 1% penicillin streptomycin. Jurkat 1G5 cells contain a stably-integrated LTR-luciferase reporter gene (Aguilar-Cordova et al., 1994), and were maintained in RPMI supplemented with 10% FBS and 1% glutamax. THP-1 cells were maintained in RPMI supplemented with 10% FBS and 1% glutamax and differentiated to macrophages with 50 ng/ml PMA for 48 hr, followed by a 48 hr rest period prior to stimulation. To measure LTR-driven luciferase, 1G5 cells were lysed and luminescence determined using the Luciferase Assay kit (Promega) according to manufacturer's instructions. Results are expressed as fold change compared to untreated. 293T cells were transfected in 96 well plates with 90 ng ELAM firefly luciferase reporter plasmid (Chow et al., 1999) and 10 ng pRL-TK Renilla plasmid using TransiT LTI (Mirus). 18 hours later cells were treated for 6 hours and luciferase activity determined using the Dual-Glo Luciferase Assay System (Promega). Results are expressed as fold increase relative to transfected, mock treated cells following normalization to Renilla luciferase. Digitonin permeabilization assays were done as described previously (Girardin et al., 2003) with the following modifications: 1G5 cells were stimulated with purified HBP supernatants, or 10 μg/ml flagellin (Invivogen) for 20 minutes at 4° C. in the absence or presence of 2 μg/ml digitonin (Sigma). […]
293T were maintained in DMEM supplemented with 10% FBS, 1% glutamax, and 1% penicillin streptomycin. […] To measure LTR-driven luciferase, 1G5 cells were lysed and luminescence determined using the Luciferase Assay kit (Promega) according to manufacturers instructions. Results are expressed as fold change compared to untreated. […] 18 hours later cells were treated for 6 hours and luciferase activity determined using the Dual-Glo Luciferase Assay System (Promega). Results are expressed as fold increase relative to transfected, mock treated cells following normalization to Renilla luciferase.

THP-1 macrophages = assay: qRT-PCR analysis of THP-1 macrophages treated with synthetic HBP and TLR ligands; assay type: cell-based, human; details: 4 hr, with PAM3CSK4 or flagellin; FIG. 3c
Procedure: FIG. 3(c), qRT-PCR analysis of THP-1 macrophages treated with synthetic HBP (sHBP), PAM3CSK4 (PAM3), or flagellin (FLAG) for 4 hr, expressed as fold increase relative to untreated after normalization to GAPDH. Data represent ≥3 independent experiments performed in duplicate. All error bars±s.e.m. *P<0.05, **P<0.01 by ANOVA.
THP-1 cells were maintained in RPMI supplemented with 10% FBS and 1% glutamax and differentiated to macrophages with 50 ng/ml PMA for 48 hr, followed by a 48 hr rest period prior to stimulation. […] Results are expressed as fold change compared to untreated.
RNA was isolated using an RNeasy kit (Qiagen) per manufacturers' protocol. cDNA was synthesized using the iScript cDNA synthesis kit (Bio-Rad) and treated with TURBO DNase (Life Technologies). cDNA was amplified using SsoAdvanced SYBR Green (Bio-Rad) using a C1000 thermal cycler (Bio-Rad).

[1] = test system: primary human macrophages, neutrophils, and immortalized epithelial cells; assay: Cytokine production in primary human cells (ELISA); assay type: cell-based
Procedure: Relative expression was calculated using the 2^−ΔΔCT method following normalization of target gene abundance to GAPDH. Quantitative measurements of cytokines were performed using ELISA kits form R&D Systems (KC, IL-23, IFN-β) or BD Biosciences (IL-1β, IL-8, IL-6, IL-12p70, TNF-α). Nuclear extracts were prepared from Jurkat T cells and NF-κB subunit binding was determined using the TransAM® Transcription Factor ELISA (Active Motif). Microarray
Whole blood was taken by venipuncture from human volunteers. Peripheral blood mononuclear cells (PBMCs) were isolated using Ficoll-Paque (GE). PBMCs (2×10^6 cells/ml) were incubated for one hour at 37° C. to allow monocytes to adhere. Following removal of non-adherent cells, monocytes were re-suspended and incubated for 7 days in RPMI 1640, 10% FBS, 1% glutamax, 1% penicillin streptomycin, containing 100 ng/ml recombinant human Granulocyte macrophage-colony stimulating factor (GM-CSF) (BioLegend). For infections, cells were detached using accutase (Sigma) and seeded at 2×10^5 cells/well in 48 well plates without antibiotics. Human neutrophils were isolated from citrated whole blood taken from healthy volunteers by venipuncture using Ficoll-Paque (GE) as described previously (McCaw et al., 2003).

TIFA-TRAF6 interaction = target: T1, TIFA-TRAF6 interaction (Homo sapiens, UniProt Q96CG3); assay: FLAG-TIFA immunoprecipitation and immunoblot for TRAF6; assay type: cell-based
T1 construct: expressed in transfected cells; endogenous TIFA knocked down with a 3' UTR shRNA; TRAF6 endogenous
T1 sequence (Q96CG3 1-184): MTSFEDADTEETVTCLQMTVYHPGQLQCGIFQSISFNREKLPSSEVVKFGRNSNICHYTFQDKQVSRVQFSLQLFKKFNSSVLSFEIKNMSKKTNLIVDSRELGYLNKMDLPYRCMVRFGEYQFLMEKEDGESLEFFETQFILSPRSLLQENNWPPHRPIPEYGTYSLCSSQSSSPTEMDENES
Procedure: (§1) FLAG-TIFA was immunoprecipitated from Jurkat cells using FLAG M2 agarose beads (Sigma) as described previously (Chen and Gingras, 2007). Briefly, cells were lysed in 50 mM Hepes-KOH pH 8.0, 100 mM KCl, 2 mM EDTA, 0.1% NP40, 10% glycerol. Soluble cell lysates were pre-cleared for 2 hr with mouse IgG agarose (Sigma) and immunoprecipitated overnight at 4° C. Proteins eluted using 0.5 M NH4OH pH 11 (for mass-spectrometry), or 3× FLAG-peptide (Sigma) (immunoblot analysis). TRAF6 was immunoprecipitated from Jurkat cell lysates using rabbit anti-TRAF6 (sc-72201; Santa cruz) conjugated to protein A/G PLUS-agarose (Santa cruz) and eluted in sample buffer. Whole cell lysates or immunoprecipitation eluates were immunoblotted with the following antibodies: M2 anti-FLAG (Sigma), rabbit anti-FLAG (Sigma), mouse anti-TRAF6 (sc-8409; Santa Cruz), rabbit anti-TRAF2 (sc-876), mouse anti-ubiquitin (sc-8017; Santa cruz), mouse anti-beta actin (Sigma). For phosphopeptide analysis, FLAG-TIFA was excised from the gel, subject to in-gel trypic digestion, followed by treatment with cyanogen bromide (Sigma) in 70% TFA and analyzed by LC/MS/MS. Data were analyzed by Scaffold PTM (Proteome).

TRAF2 = assay: FLAG-TIFA immunoprecipitation and immunoblot for TRAF2; assay type: cell-based, human; details: HBP treatment; FIG. 16a
Procedure: as §1

O=P(O)(O)OC[C@@H](O)[C@H]1OC(OP(=O)(O)O)[C@@H](O)[C@@H](O)[C@@H]1O (stereo partly drawn) [HBP, D-glycerol-D-manno-heptose-1,7-bisphosphate]
NF-κB activation after incubation of the product with phosphatase GmhB (NF-κB; FIG. 1e): decreased NF-κB activation | NF-κB activation (NF-κB; product of in vitro reaction of S7P with GmhA and HldA, FIG. 1d): potently stimulated NF-κB | Activation of THP-1 macrophages in combination with TLR ligands (THP-1 macrophages): synergistically activated THP-1 macrophages | IL-8, IL-6 and TNFα production ([1]; 24 hr, FIG. 8a-c): induced IL-8, IL-6, and TNFα production | Th17 polarizing cytokines IL-6 and IL-23 ([1]; primary human macrophages): induced significant amounts | Ubiquitin chains in the TIFA-TRAF6 complex (TIFA-TRAF6 interaction; Jurkat cells, TIFA immunoprecipitation, FIG. 17a): Ubiquitin chains could be detected | TIFA-TRAF6 interaction (TIFA-TRAF6 interaction; cells expressing FLAG-TIFA, endogenous TIFA knocked down, FIG. 16a): completely dependent on HBP | Time at which TIFA-TRAF6 interaction was apparent (TIFA-TRAF6 interaction; post treatment, FIG. 16a): 30 min | TIFA interaction with TRAF2 (TRAF2): No interaction was observed
